# According to patent publication US20210292680A1, “MULTIFUNCTIONAL AROMATIC ALCOHOLS FOR PERSONAL CARE, HOME CARE AND INDUSTRIAL AND INSTITUTIONAL COMPOSITIONS” (EMERALD KALAMA CHEMICAL, LLC, priority 2018, published 2021):
# Legend:
# [1] = Final product foam stability (Blender Foam Volume/Drainage method); conditions: 0.5 wt. % aromatic alcohol incorporated into products
# Description: Final product foam stability was tested using Blender Foam Volume/Drainage method published by Henkel Corp. 1981.
# In the foam loss evaluation above, foam destabilization occurred at the time of addition (with mixing) of the aromatic alcohol. Further testing was performed to determine if the foaming ability of final products would be negatively impacted if aromatic alcohols were added to the formulations during the production process. A variety of commercial products were selected for testing, and 0.5 wt. % of aromatic alcohol (R=3, 3-phenylpropanol) was added to each. […] Foam stability of these commercial products was not reduced by the addition of aromatic alcohol.
# [2] = Shear ramp, oil-in-water emulsion (viscosity); format: physicochemical; conditions: Vanicream skin lotion, concentrations up to 0.5 wt. % aromatic alcohol, 25° C
# Description: Shear Ramp oil-in-water emulsion: A 25 mm parallel plate geometry was used on an AR2000ex rheometer at 25° C. A gap of 600 μm was used. The shear was ramped from 0 s^−1 to 100 s^−1 over one minute. Viscosity readings are expressed in Pa·s.
# R=3 Aromatic Alcohol. An R=3 aromatic alcohol, i.e., 3-phenylpropanol, was tested in a commercial oil-in-water emulsion, i.e., Vanicream® skin lotion, at 0.1 wt. %, 0.25 wt. % and 0.5 wt. % addition and compared to a control (without aromatic alcohol). […] The low shear (at 10 s^−1) viscosity was increased 68% over the control, while high shear viscosity (at 70 s^−1) increased roughly 100% (FIG. 1). The increase in high and low shear viscosity achieved desirable rheological traits such as richness, creaminess, and enhanced texture and skin feel in this end use personal care product with the addition of the aromatic alcohol. This unexpected result allows personal care and home care formulators, among others, to reduce or eliminate use of separate rheology modifiers to manipulate the viscosity of the final product.
# [3] = Formulation stability of general purpose cleaner on storage; format: physicochemical; conditions: 0.5 wt. % aromatic alcohol; pH 7; 7 days at 22° C.
# Description: Rapid and complete dissolution of raw materials into aqueous solutions can prevent problems with solution instability over time. For example, a general purpose cleaner containing sodium coco fatty alcohol sulfate and 0.1 wt. % of either hydroxyethyl cellulose or xanthan gum (Table 2) becomes unstable over time across a range of pH values.
# Panel (b) of FIG. 10 compares a general purpose cleaner containing hydroxyethyl cellulose at pH 7 with (right side of panel) and without (left side of panel) the use of 0.5 wt. % aromatic alcohol, stored at room temperature for one week, then shaken to disperse precipitants. Panel (c) of FIG. 10 compares a general purpose cleaner containing xanthan gum at pH 5 with (right side of panel) and without (left side of panel) the use of 0.5 wt. % aromatic alcohol (right,) stored at room temperature for one week, then shaken to disperse precipitants.
# Similar observations were made with formulations of a general purpose cleaner in the absence of hydroxyethyl cellulose or xanthan gum but containing sodium coco fatty alcohol sulfate surfactant (FIG. 11). FIG. 11 compares a sample of a general purpose cleaner at pH 7 with and without 0.5 wt. % aromatic alcohol (R=3, 3-phenylpropanol). […]
# [4] = Time to dissolve; format: physicochemical; conditions: water with 1 wt. % aromatic alcohol
# Description: Time to dissolve: Aromatic alcohol, 1% by weight, was added to deionized water to make 500 mL of solution. Stirring was started at 300 rpm. Test ingredient was added to both a 500 mL control deionized water and the 500 mL aromatic alcohol solution as a stopwatch timer was started. The timer was stopped when solution was completely clear and/or no particles of the test ingredient were visible in either sample. This is noted as the “dissolution time”, or time to dissolve. Aromatic alcohols can help solubilize hard-to-dissolve formulation ingredients more quickly and/or without the use of heat. The addition of 1.0 wt. % aromatic alcohol decreased the dissolution time of several common, hard-to-dissolve ingredients as shown in Table 1 below. Table 1 reflects the time to completely dissolve ingredients in water (Control) or water with 1 wt. % aromatic alcohol (R=3 denotes 3-phenylpropanol; R=4 denotes 2-methyl-3-phenylpropanol).
# [5] = Process defoaming evaluation (modified ASTM E2407-04); conditions: 0.4 wt. % aromatic alcohol; 2.0 wt. % BioSoft N1-7 solution
# Description: Defoaming evaluation: Process defoaming was tested using a modified ASTM method (E2407-04 (2015) Standard Test Method for Effectiveness of Defoaming Agents). 250 mL of a 2.0 wt. % surfactant solution was blended at the highest speed setting for 30 seconds, then let sit for 3 minutes. The initial foam height is measured, and then 0.4 wt. % defoamer is dropped onto the surface of the foam. The blender is turned on low speed and the solution is mixed for 1 minute. Foam height is re-measured after an additional five minutes of sitting.
# Process defoaming was tested using a modified ASTM method (E2407-04 (2015) Standard Test Method for Effectiveness of Defoaming Agents) to assess surfactants and determine if there was a relationship between foam destabilization and surfactant type. Two different surfactant solutions were tested. 2.0 wt. % surfactant solutions were prepared as controls using BioSoft® N1-7 and SLES. Thereafter, 0.4 wt. % aromatic alcohols (R=3 and R=4) were added to each surfactant solution for comparison to the controls. After agitation to generate foam, the percent of initial foam volume loss was far less for the control (without aromatic alcohols).
# [6] = Shear ramp, aqueous solution (viscosity); format: physicochemical; conditions: hand dish wash
# Description: Shear Ramp aqueous solution: The 40 mm cone and plate geometry was used on an AR2000ex rheometer at 25° C. A gap of 29 μm was used. The shear was ramped from 0 s^−1 to 2000 s^−1 over six minutes. Shear rate is expressed in s^−1 or 1/s. Viscosity readings are expressed in Pa·s.
# At 0.5 wt. %, the low shear viscosity increased roughly 36% over the control, while high shear viscosity increased roughly 43%. (Results not shown.)
# R=4 Aromatic Alcohols. Similarly, viscosity modifying behavior is observed in a hand dish wash aqueous surfactant solution using an aromatic alcohol, where R=4 carbons (2-methyl-3-phenylpropanol). […] For 0.5 wt. % aromatic alcohol, the low shear viscosity increased 110% over the control, while high shear viscosity increased approximately 37%. At 1.0 wt. % aromatic alcohol, the viscosity profile changed, yielding increases in low and high shear viscosity of 56% and 94%, respectively.
# [7] = Coco fatty alcohol sulfate 2.0 wt. %
Structure (SMILES),foam stability of commercial products [1],low shear viscosity increase over the control ([2]; at 10 s^-1) [%],high shear viscosity increase over the control ([2]; at 70 s^-1),"homogeneity of general purpose cleaner without hydroxyethyl cellulose or xanthan gum, containing coco fatty alcohol sulfate [3]","Time to Dissolve at 22° C. ([4]; 1,2-octanediol 1.0 wt. %) [min]","Time to Dissolve at 22° C. [4, 7] [min]","foam destabilization (foam loss, % of initial foam volume) [5]",high shear viscosity increase over the control ([6]; 0.5 wt. % aromatic alcohol),low shear viscosity increase over the control ([6]; 0.5 wt. % aromatic alcohol),high shear viscosity increase over the control ([6]; 1.0 wt. % aromatic alcohol) [%],low shear viscosity increase over the control ([6]; 1.0 wt. % aromatic alcohol) [%]
OCCCc1ccccc1 [3-phenylpropanol],not reduced,68,roughly 100%,remained homogeneous,8.1,4.0,significantly destabilized foam,roughly 43%,roughly 36%,–,–
CC(CO)Cc1ccccc1 (stereo not shown) [2-methyl-3-phenylpropanol],–,–,–,–,7.8,3.5,significantly destabilized foam,approximately 37%,110%,94,56
